Results on one compound are retold here after US20110293511A1, “SPECIFIC BINDING PROTEINS AND USES THEREOF” (priority 2009, published 2011).

This assay deals with A431 xenografts. In words: s.c. xenograft therapy study. The class given is in vivo, nude mice. Particulars: preventative model; 0.1 mg mAb806; 400 μg AG1478. On the procedure:
Tumor cells (3×10^6) in […] of PBS were inoculated subcutaneously into both flanks of 4-6 week old female nude mice (Animal Research Centre, Western Australia, Australia). […] Treatment was continued for a total of 6 doses, 3 times per week for 2 weeks. In the established model, treatment was started when tumors had reached a mean volume of 65±6.42 mm^3 (U87MG.Δ2-7), 84±9.07 mm3 (U87MG), 73±7.5 mm^3 (U87MG.wtEGFR) or 201±19.09 mm^3 (A431 tumors). Tumor volume in mm^3 was determined using the formula (length×width)/2, where length was the longest axis and width the measurement at right angles to the length (Clark et al. (2000) Therapeutic efficacy of anti-Lewis (y) humanized 3S 193 radioimmunotherapy in a breast cancer model: enhanced activity when combined with Taxol chemotherapy. Clin. Cancer Res. 6, 3621-3628). Data was expressed as mean tumor volume±S.E. for each treatment group. Statistical analysis was performed at given time points using Student's t-test. […]
To establish xenografts, mice were injected subcutaneously into the right and left inguinal mammary line with 1×10^6 A431 adenocarcinoma cells or 1×10^6 U87MG.de2-7 glioma cells in 100 μl of PBS. Tumor volume (TV) was calculated by the formula [(length×width)/2] where length was the longest axis and width the measurement at right angles to length. […]

On to `COc1cc2ncnc(Nc3cccc(Cl)c3)c2cc1OC` [AG1478, 4-(3-Chloroanilino)-6,7-dimethoxyquinazoline, reference compound], for which the “reduction of tumor volume” value is “significant reduction of tumor volume”.
